The source made the active and inactive calls.
Key:
[1] = inhibitors of SNCA 5'UTR-driven reporter translation, confirmation, H4 neuroglioma cells, luminescence (AID 1988); assay type: functional, cell-based
[2] = LGR2 antagonists, dose response, cell-based, HEK293, CRE-luciferase reporter, cherry pick, set 2 (AID 743343); assay type: functional;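 further: transfected cells were stimulated with diluted bursicon conditioned medium after compound addition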
[3] = inhibitors of firefly luciferase expression or activity, dose response, H4 neuroglioma cells, luminescence (AID 1990); assay type: functional, cell-based
[4] = MC4R antagonists, dose response, counter-screen for LGR2 antagonist project, cell-based, plate reader, cherry pick (AID 743444); assay type: functional;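 further: transfected HEK 293 cells stimulated with alpha-MSH peptide; potency of inhibitors of the alpha-MSH evoked signal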
[5] = A549 cell cytotoxicity, dose response, cytotoxicity control, plate reader, cherry-pick, antagonist series (AID 743412); assay type: functional, cell-based
[6] = Luminescence Cell-Based Dose Response HTS to Identify Inhibitors of 5'UTR Stem-Loop Driven Prion Protein mRNA Translation in H4 Neuroglioblastoma Cells. [Related pubchem assays: 1827 (Project Summary), 1813 (Primary HTS)]; assay type: functional
[7] = HEK293 cell cytotoxicity, dose response, cytotoxicity control, plate reader, cherry-picked samples (AID 743446); assay type: functional, cell-based
[8] = molecular target: T1, Heat shock factor protein 1 (Mus musculus, UniProt P38532); test: inhibition of MG132-induced HSE-luciferase signal, confirmation, cell-based, NIH3T3, luminescence, dose retest (AID 2382); assay type: functional;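 further: NIH3T3 fibroblasts with HSF1-driven luciferase reporter stressed by proteasome inhibitor MG132; luminescence from HSF1-driven luciferase expression after 8 hours of MG132 stress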
T1 sequence (P38532 whole entry): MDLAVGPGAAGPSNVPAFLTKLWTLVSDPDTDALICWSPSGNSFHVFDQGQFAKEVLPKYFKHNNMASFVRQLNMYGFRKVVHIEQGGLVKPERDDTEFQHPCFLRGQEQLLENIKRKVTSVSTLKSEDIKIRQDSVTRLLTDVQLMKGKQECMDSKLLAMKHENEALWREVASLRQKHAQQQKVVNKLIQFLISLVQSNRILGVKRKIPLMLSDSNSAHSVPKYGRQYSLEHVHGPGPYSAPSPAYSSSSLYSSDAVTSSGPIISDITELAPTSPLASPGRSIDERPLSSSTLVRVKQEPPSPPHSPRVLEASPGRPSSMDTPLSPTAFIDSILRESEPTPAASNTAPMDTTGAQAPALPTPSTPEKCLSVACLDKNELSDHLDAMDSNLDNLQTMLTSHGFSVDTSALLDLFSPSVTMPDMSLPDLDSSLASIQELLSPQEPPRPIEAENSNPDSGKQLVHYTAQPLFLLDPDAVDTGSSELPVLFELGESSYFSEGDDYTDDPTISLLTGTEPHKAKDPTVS

[9] = HepG2 cell cytotoxicity, dose response, cytotoxicity control, plate reader, cherry-pick, antagonist series (AID 743416); assay type: functional, cell-based
[10] = A375 melanoma cell viability loss, dose response, counter-screen for MITF inhibitor project, CellTiter-Glo luminescence, dry powder, set 4 (AID 624364); assay type: functional, cell-based; details: A-375;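 further: A375 melanoma cells are MITF independent so this is a counter screen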
[11] = A375 melanoma cell cytotoxicity, dose response, counter-screen for MITF inhibitor project, CellTiter-Glo luminescence, dry powder, set 2 (AID 624489); assay type: functional, cell-based; details: A-375;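 further: actives are compounds lowering A375 viability meaning general cytotoxicity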
[12] = molecular target: T2, Oxysterols receptor LXR-beta (Homo sapiens, UniProt P55055); assay type: functional, cell-based;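 further: Cell-based luminescence dose-response assay of agonist activity at LXR, run as a confirmatory counterscreen to a daf-12 agonist screen; HEK293 cells with Gal4-LXR fusion and GAL4-driven luciferase reporter; agonist potency from rising luciferase signal of a Gal4-LXR reporter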
T2 sequence (P55055 whole entry): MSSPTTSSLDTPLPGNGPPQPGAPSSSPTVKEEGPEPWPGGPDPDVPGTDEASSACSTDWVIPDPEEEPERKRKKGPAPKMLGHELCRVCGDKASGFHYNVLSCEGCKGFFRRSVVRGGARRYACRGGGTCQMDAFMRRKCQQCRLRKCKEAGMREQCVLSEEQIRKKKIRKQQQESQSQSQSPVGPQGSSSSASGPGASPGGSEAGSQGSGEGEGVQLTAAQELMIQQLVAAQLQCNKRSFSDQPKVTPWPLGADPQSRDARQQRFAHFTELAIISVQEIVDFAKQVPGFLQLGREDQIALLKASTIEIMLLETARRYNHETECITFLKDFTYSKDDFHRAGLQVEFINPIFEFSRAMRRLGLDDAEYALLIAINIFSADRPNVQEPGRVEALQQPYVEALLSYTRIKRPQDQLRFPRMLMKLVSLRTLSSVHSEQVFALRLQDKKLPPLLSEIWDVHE

HEK293 = test: HEK293T cell cytotoxicity, dose response, cytotoxicity control, ATP luminescence, cherry-pick samples (AID 687005); assay type: functional, cell-based; details: Homo sapiens;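 further: cells exposed to compound for 48 hours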
[13] = HEK293 Cytotoxicity Assay Measured in Cell-Based System Using Plate Reader - 7071-01_Inhibitor_Dose_CherryPick_Activity_Set2.; assay type: functional
[14] = ADAM10 inhibitors, peptide cleavage, dose response, biochemical, QFRET (AID 743254);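 further: ADAM10 enzyme with the DM2 quenched FRET peptide as substrate; EDANS fluorescence gain as the protease cuts the substrate; inhibitor potency against ADAM10 proteolytic activity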
[15] = molecular target: Disintegrin and metalloproteinase domain-containing protein 17 (Homo sapiens, UniProt P78536); test: ADAM17 protease inhibitors, dose response, counter-screen for ADAM10 exosite inhibitor project, biochemical, quenched FRET substrate (AID 743253)
[16] = molecular target: Metabotropic glutamate receptor 7 (Homo sapiens, UniProt Q14831); test: mGlu7 positive allosteric modulators, dose response, cell-based, calcium mobilization, Galpha15 (AID 743384); assay type: functional
Sequence of Metabotropic glutamate receptor 7 (Q14831 whole entry): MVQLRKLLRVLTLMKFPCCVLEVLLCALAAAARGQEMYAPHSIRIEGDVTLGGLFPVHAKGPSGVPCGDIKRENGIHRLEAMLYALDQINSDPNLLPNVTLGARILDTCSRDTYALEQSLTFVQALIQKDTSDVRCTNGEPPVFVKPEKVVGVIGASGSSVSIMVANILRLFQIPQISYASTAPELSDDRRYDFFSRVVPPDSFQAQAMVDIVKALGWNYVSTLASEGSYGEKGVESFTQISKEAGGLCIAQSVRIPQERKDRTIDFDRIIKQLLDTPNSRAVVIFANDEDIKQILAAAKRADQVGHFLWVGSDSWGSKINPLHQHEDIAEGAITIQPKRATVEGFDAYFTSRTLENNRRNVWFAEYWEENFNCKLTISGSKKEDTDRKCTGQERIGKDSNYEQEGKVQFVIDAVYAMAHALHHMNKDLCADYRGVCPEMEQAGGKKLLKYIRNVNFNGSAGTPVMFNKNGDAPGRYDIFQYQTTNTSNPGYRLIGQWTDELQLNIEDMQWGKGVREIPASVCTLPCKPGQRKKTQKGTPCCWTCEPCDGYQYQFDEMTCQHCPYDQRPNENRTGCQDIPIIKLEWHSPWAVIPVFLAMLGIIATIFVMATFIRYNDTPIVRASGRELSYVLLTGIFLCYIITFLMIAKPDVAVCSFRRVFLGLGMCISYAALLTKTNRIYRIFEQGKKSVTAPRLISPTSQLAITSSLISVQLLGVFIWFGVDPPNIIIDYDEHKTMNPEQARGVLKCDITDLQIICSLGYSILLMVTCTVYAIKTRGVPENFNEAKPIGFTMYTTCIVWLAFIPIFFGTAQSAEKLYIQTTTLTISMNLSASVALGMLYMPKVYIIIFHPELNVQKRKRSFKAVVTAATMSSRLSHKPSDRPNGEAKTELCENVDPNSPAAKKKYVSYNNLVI

Sequence of Disintegrin and metalloproteinase domain-containing protein 17 (P78536 whole entry, the tested form may be a part): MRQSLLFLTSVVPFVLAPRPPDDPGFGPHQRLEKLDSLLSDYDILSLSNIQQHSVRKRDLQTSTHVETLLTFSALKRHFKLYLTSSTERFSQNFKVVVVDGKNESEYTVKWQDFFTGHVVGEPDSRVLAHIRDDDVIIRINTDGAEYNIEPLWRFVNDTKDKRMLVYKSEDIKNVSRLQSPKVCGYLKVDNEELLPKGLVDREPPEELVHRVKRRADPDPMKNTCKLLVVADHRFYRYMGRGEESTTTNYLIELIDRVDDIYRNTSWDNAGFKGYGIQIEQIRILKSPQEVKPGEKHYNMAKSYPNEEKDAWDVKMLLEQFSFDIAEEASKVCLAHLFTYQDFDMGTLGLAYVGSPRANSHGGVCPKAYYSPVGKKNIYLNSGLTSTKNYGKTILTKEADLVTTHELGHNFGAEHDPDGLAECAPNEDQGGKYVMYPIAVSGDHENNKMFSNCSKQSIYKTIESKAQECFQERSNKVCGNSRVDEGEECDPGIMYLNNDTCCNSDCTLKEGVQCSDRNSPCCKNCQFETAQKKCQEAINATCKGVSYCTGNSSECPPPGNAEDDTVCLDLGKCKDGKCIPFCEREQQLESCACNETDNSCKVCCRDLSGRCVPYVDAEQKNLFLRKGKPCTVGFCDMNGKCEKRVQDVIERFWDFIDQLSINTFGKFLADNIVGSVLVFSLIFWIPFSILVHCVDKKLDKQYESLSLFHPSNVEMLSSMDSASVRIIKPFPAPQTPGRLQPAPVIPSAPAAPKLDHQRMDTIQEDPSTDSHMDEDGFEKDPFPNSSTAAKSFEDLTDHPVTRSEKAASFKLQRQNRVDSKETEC

O=C(c1ccc(-c2nc3ccccc3s2)s1)N1CCOCC1
EC50 [1]: 0.887 µM (active)
AC50 [2]: 1.49 µM (active)
EC50 [3]: 1.42 µM (active)
AC50 [4]: 2.04 µM (active)
AC50 [5]: > 52 µM (inactive)
EC50 [6]: 54 µM (active)
AC50 [7]: 51.4 µM (active)
EC50 [8]: 1.07 µM (active)
AC50 [9]: > 52 µM (inactive)

CC(=O)NC1=C(c2ccccc2)C(=O)c2ccccc2C1=O
AC50 [10]: 15.6 µM (active)
AC50 [11]: 8.87 µM (active)

Cn1c(=N)n(CC(=O)c2ccccc2)c2ccccc21
EC50 [12]: > 67.5 µM (inactive)
EC50 [6]: 8.25 µM (inconclusive)
EC50 (cells): > 67.5 µM (inactive)

CC(NC(=O)COc1ccccc1C(C)(C)C)c1ccccc1 (configuration not stated)
AC50 (HEK293): 51.4 µM (active)
AC50 [13]: 51.4 µM (active)

C[C@H](CO)N1C[C@H](C)[C@@H](CN(C)Cc2ccc(Oc3ccccc3)cc2)Oc2ccc(NC(=O)Nc3ccc4c(c3)OCO4)cc2C1=O
AC50 (HEK293): 26.4 µM (active)
AC50 [13]: 26.4 µM (active)

COc1cc(/C=N/OCC(=O)Nc2ccc(OC(F)F)cc2)ccc1OCc1ccccc1
IC50 [14]: > 69.5 µM (inactive)
IC50 [15]: > 69.5 µM (inactive)

CC(=O)Nc1ccc(SCC(=O)c2cc(C)n(CC3COc4ccccc4O3)c2C)cc1 (configuration not stated)
EC50 [16]: 2.6 µM (active)

CCOc1ccc(-n2c(C)cc(C(=O)CSCc3ccc(OC)cc3)c2C)cc1
EC50 [16]: 10 µM (active)
